Laboratory results published in patent US5494932A, “Sulfonic stilbene derivatives in the treatment of viral disease” (Merrell Dow Pharmaceuticals Inc., priority 1991, dated 1996).

System: HCMV
Assay: Plaque reduction assay, HCMV
Assay type: cell-based
Experimental: Protocol: Plaque reduction assay. Treatment after adsorption during incubation.

`O=S(=O)(O)c1cc(N=C=S)ccc1C=Cc1ccc(N=C=S)cc1S(=O)(=O)O` [DIDS, 4,4'-diisothiocyanatostilbene-2,2'-disulfonic acid] was tested, and the Plaque counts (1 μg/ml, first count) was 15, the Plaque counts (1 μg/ml, second count) was 14 and the Plaque counts (10 μg/ml, first count) was 16. It also gave a Plaque counts (10 μg/ml, second count) of 12, a Plaque counts (10 μg/ml, third count) of 11 and a Plaque counts (100 μg/ml, first count) of 3. It also gave a Plaque counts (100 μg/ml, second count) of 4, a Plaque counts (100 μg/ml, third count) of 3 and a Plaque counts (1000 μg/ml, first count) of 0. The Plaque counts (1000 μg/ml, second count) was 0, the Plaque counts (1000 μg/ml, third count) was 0 and the activity at 1 µg/mL (Human betaherpesvirus 5, 1 μg/ml, read-out: Mean % VC (plaques)) was 49%. For the same compound, the activity at 10 µg/mL (Human betaherpesvirus 5, 10 μg/ml, read-out: Mean % VC (plaques)) was 43%, the activity at 100 µg/mL (Human betaherpesvirus 5, 100 μg/ml, read-out: Mean % VC (plaques)) was 10% and the activity at 1000 µg/mL (Human betaherpesvirus 5, 1000 μg/ml, read-out: Mean % VC (plaques)) was 0%.
